Measured values reported in PMC7077018, “Gas chromatography-mass spectrometry analysis, phytochemical screening and antiprotozoal effects of the methanolic Viola tricolor and acetonic Laurus nobilis extracts” (BMC Complementary Medicine and Therapies, 2020).
≈ marks a conversion by molar mass, not a printed value. Where two headings read alike, the source gives them in different places.

Columns and labels:
B. bigemina = assay: Babesia fluorescent (SYBR Green I) in vitro growth inhibition assay; type: cell-based; settings: for IC50: B. bigemina, in vitro, 4 days
Excerpt: (§1) For the in vitro experiments, a German strain B. divergens, Argentine strain B. bigemina, Texas strain B. bovis, were cultivated in cattle RBCs, while USDA strains of equine piroplasm parasites (T. equi and B. caballi) were maintained in horse RBCs. […] For conducting the in vivo study, female BALB/c mice, aged six-week, obtained from CLEA Japan were infected with B. microti Munich strain [1]. […] GIT medium replenished with 40% horse serum was used as a growth medium for B. caballi parasite culture. To ensure free-bacterial contamination, all medium was supplemented with amphotericin B (0.15 μg/mL) (Sigma-Aldrich, USA), streptomycin (60 U/mL) and penicillin G (60 U/mL). The Babesia fluorescent assay was carried out on the in vitro culture as previously reported elsewhere. […] On day four of culture, an aliquot (100 μL) of lysis buffer was added to 0.2 μL/mL SG1 per well; subsequently, it was covered with aluminum foil to prevent exposure to light. After a 6-h incubation at 37 °C, fluorescence readings were acquired on a spectrofluorimeter (Fluoroskan Ascent, Thermo Fisher Scientific, USA) with a 485 nm excitation wavelength and a 518 nm emission wavelength. The IC50 values of the two extracts, DMA and ATV were established from the in vitro growth inhibition by nonlinear regression curve fit on a GraphPad Prism (GraphPad Software Inc., USA). While for in vivo, the significant variations (p < 0.05) among group mean values on parasitemia and one-way ANOVA Tukey's test in GraphPad Prism version 5.0 was used to analyze hematology profiles in mice infected with B. microti.

B. bovis = assay: as above; type: cell-based; settings: for IC50: B. bovis, in vitro, 4 days
Excerpt: as §1

B. caballi = assay: as above; type: cell-based; settings: for IC50: B. caballi, in vitro, 4 days
Excerpt: as §1

B. divergens = assay: as above; type: cell-based; settings: for IC50: B. divergens, in vitro, 4 days
Excerpt: as §1

T. equi = assay: as above; type: cell-based; settings: for IC50: T. equi, in vitro, 4 days
Excerpt: as §1

[1] = tested on: Madin–Darby bovine kidney (MDBK) cells; assay: Cytotoxicity assay on normal cells (CCK-8); type: cell-based; settings: MDBK cell viability, 24 h
Procedure: (§2) Cultures of Human foreskin fibroblast (HFF; HFF-1 ATCC® SCRC-1041™), Madin–Darby bovine kidney (MDBK; ECACC) and mouse embryonic fibroblast (NIH/3 T3; ATCC® CRL-1658™) cells were retrieved from − 80 °C stock and cultured continuously at 37 °C under atmosphere 5% CO2 in our laboratory. The NIH/3 T3 and HFFs cells were preserved in Dulbecco Modified Eagle’s Medium (DMEM; Gibco, Grand Island, NY, USA), while MDBK cell line grown in Minimum Essential Medium Eagle (MEM; Gibco). All mediums were treated with 2 mM glutamine, 0.5% penicillin/streptomycin (Gibco) and 10% inactivated fetal bovine serum. Every 72 to 96 h, the medium was replaced, and once 80% confluence was reached, the cell collection was performed by sub-culture protocol. To confirm the absence of mycoplasma contamination, 4, 6-diamidino-2-phenylindole dihydrochloride (Sigma-Aldrich, USA) stain was used.
(§3) The cell viability test was conducted in a 96-well plate as described elsewhere. Briefly, an aliquot of (100 μL) cells was implanted at 5 × 10^4 cells/mL in DMEM or MEM with fetal bovine serum and incubated overnight under atmosphere 5% CO2 at 37 °C for attachment. Using two-fold dilutions, aliquots (10 μL) of herbal extracts and reference drugs were added in triplicate per well and further incubated for 24 h. The positive control wells containing cells mixed with the medium in 0.4% DMSO, whereas the negative control wells containing culture medium only. After a 24-h incubation, Cell Counting Kits-8 (CCK-8) (10 μL) was added per well and then plate incubation was conducted for an additional 3 h and a microplate reader was used to assess the absorbance at 450 nm.

[2] = tested on: human foreskin fibroblast (HFF) cells; assay: Cytotoxicity assay on normal cells (CCK-8); type: cell-based; settings: HFF cell viability, 24 h
Procedure: as §2, §3

[3] = tested on: mouse embryonic fibroblast (NIH/3 T3) cells; assay: Cytotoxicity assay on normal cells (CCK-8); type: cell-based; settings: 24 h
Procedure: as §2, §3

B. microti = assay: Chemotherapeutic effects against B. microti in infected BALB/c mice; type: in vivo
Procedure: For the in vitro experiments, a German strain B. divergens, Argentine strain B. bigemina, Texas strain B. bovis, were cultivated in cattle RBCs, while USDA strains of equine piroplasm parasites (T. equi and B. caballi) were maintained in horse RBCs. The parasite incubation occurred at 37 °C in a humidifying chamber under 90% N2, 5% O2, and 5% CO2 atmosphere using a microaerophilic stationary-phase culture. For conducting the in vivo study, female BALB/c mice, aged six-week, obtained from CLEA Japan were infected with B. microti Munich strain [1].
Twenty-five mice were placed in an environment free from pathogens with 22 °C temperature and adjusted humidity and under 12 h light and 12 h darkness and randomly distributed into five groups. The mice in groups 2 through 5 were obtained 500 μL of 1 × 10^7B. microti iRBC by intraperitoneal (i.p.) injection. Group 1 served as a negative control and was neither infected nor treated. At 1% parasitemia, drug treatment of the mice by i.p. started, continuing for 5 days. Group 2 act as a positive control group and received 95% DDW and 5% DMSO. […] The drug administration lasted for 5 days starting from the fourth day to the eighth day post-infection (p.i.), and parasitemia was checked by preparing Giemsa-stained smears every 2 days in about 2000 RBCs by microscopy until day 32 post-infection (p.i.). Furthermore, the hematological parameters, including hemoglobin (HGB), RBCs, and HCT, were determined by an automatic hematology analyzer (Celltac α MEK-6450, Nihon Kohden, Japan) every 4 days. After finishing the in vivo experiment, an anesthetic system using an inhaler containing isoflurane was used to euthanize all mice by placing them in the induction chamber, adjusting the oxygen flowmeter to 0.8 to 1.5 L/min and vaporizer to 3 to 5%. […]

Leishmania = tested on: Leishmania; set-up: method as in PMID 28968213; settings: cited from earlier work

O=C1C(O)=C([C@H]2CC[C@H](c3ccc(Cl)cc3)CC2)C(=O)c2ccccc21 [ATV, atovaquone]
IC50 (B. bigemina; 96 h, read-out: IC50): 0.26 ± 0.03 µg/mL (≈ 0.709 µM) | Selective indices HFF (B. bigemina; EC50 HFF / IC50 B. bigemina): ˃ 384.6 | Selective indices MDBK (B. bigemina; EC50 MDBK / IC50 B. bigemina): ˃ 384.6 | Selective indices NIH/3 T3 (B. bigemina; EC50 NIH/3 T3 / IC50 B. bigemina): ˃ 384.6 | IC50 (B. bovis; Bos taurus, 96 h, read-out: IC50): 0.015 ± 0.001 µg/mL (≈ 0.0409 µM) | Selective indices HFF (B. bovis; EC50 HFF / IC50 B. bovis): ˃ 6666.7 | Selective indices MDBK (B. bovis; EC50 MDBK / IC50 B. bovis): ˃ 6666.7 | Selective indices NIH/3 T3 (B. bovis; EC50 NIH/3 T3 / IC50 B. bovis): ˃ 6666.7 | IC50 (B. caballi; Babesia caballi, 96 h, read-out: IC50): 0.038 ± 0.01 µg/mL (≈ 0.104 µM) | Selective indices HFF (B. caballi; EC50 HFF / IC50 B. caballi): ˃ 2631.6 | Selective indices MDBK (B. caballi; EC50 MDBK / IC50 B. caballi): ˃ 2631.6 | Selective indices NIH/3 T3 (B. caballi; EC50 NIH/3 T3 / IC50 B. caballi): ˃ 2631.6 | IC50 (B. divergens; 96 h, read-out: IC50): 0.014 ± 0.002 µg/mL (≈ 0.0382 µM) | Selective indices HFF (B. divergens; EC50 HFF / IC50 B. divergens): ˃ 7142.9 | Selective indices MDBK (B. divergens; EC50 MDBK / IC50 B. divergens): ˃ 7142.9 | Selective indices NIH/3 T3 (B. divergens; EC50 NIH/3 T3 / IC50 B. divergens): ˃ 7142.9 | IC50 (T. equi; 96 h, read-out: IC50): 0.035 ± 0.01 µg/mL (≈ 0.0954 µM) | Selective indices HFF (T. equi; EC50 HFF / IC50 T. equi): ˃ 2857.1 | Selective indices MDBK (T. equi; EC50 MDBK / IC50 T. equi): ˃ 2857.1 | Selective indices NIH/3 T3 (T. equi; EC50 NIH/3 T3 / IC50 T. equi): ˃ 2857.1 | EC50 ([1]; Bos taurus): > 100 µg/mL | EC50 ([2]; Homo sapiens): > 100 µg/mL | EC50 ([3]; Mus musculus, NIH3T3, NIH/3 T3 cell viability): > 100 µg/mL

CC(=O)NCC(=O)O.CC(=O)NCC(=O)O.N=C(N)c1ccc(N=NNc2ccc(C(=N)N)cc2)cc1 [DMA, diminazene aceturate]
IC50 (B. bigemina): 0.11 ± 0.01 µg/mL | IC50 (B. bovis): 0.25 ± 0.02 µg/mL | IC50 (B. caballi): 0.003 ± 0.001 µg/mL | IC50 (B. divergens): 0.35 ± 0.03 µg/mL | IC50 (T. equi): 0.37 ± 0.01 µg/mL | EC50 MDBK [1]: ˃ 100 μg/mL | EC50 HFF [2]: ˃ 100 μg/mL | EC50 NIH/3 T3 ([3]; NIH/3 T3 cell viability): ˃ 100 μg/mL | Restriction of the parasitemia level (B. microti; 25 mg kg−1, eighth day p.i., mice): 93.2% | Level of parasitemia (B. microti; 25 mg kg−1 intraperitoneally for 5 days, 8 days p.i., BALB/c mice): 3.9% | Anemia development in mice (B. microti; B. microti-infected mice): prohibited anemia development

O=C/C=C/c1ccccc1 [cinnamaldehyde]
IC50 antileishmanial effect (Leishmania): 0.681 µg/mL (≈ 5.15 µM)

C=CCc1ccc(O)c(OC)c1 [eugenol]
IC50 antileishmanial effect (Leishmania): 1.43 µg/mL (≈ 8.68 µM)
